In publication PMC6614837 (Nucleic Acids Research, 2019) one finds IC50 and Kd data, which are given here for two molecules.

Data set [1] deals with Bacillus subtilis RNase P. Also on record: method as in PMID 25249623. The conditions noted are these: fluorescent pre-tRNA substrate ref 26; read-out: Reported IC50; cited from earlier work.
Data set [2] addresses T1, RNase P holoenzyme from Thermotoga maritima (Thermotoga maritima, UniProt Q9X1H4).
T1 construct: made in house
T1 sequence (Q9X1H4 1-117): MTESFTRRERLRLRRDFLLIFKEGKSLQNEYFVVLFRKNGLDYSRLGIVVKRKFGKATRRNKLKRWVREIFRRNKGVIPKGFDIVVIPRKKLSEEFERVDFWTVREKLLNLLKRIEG
The data set is described as follows: Real-time fluorescence-based (FRET) RNase P activity assay with minihelix (Mh) substrate. Type of data set: biochemical. The settings on record: fluorescent Mh substrate 270 nM, holoenzyme 33 nM, 10% DMSO, 37°C, 400 mM AmOAc, 100 mM MgCl2. Summed up: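 Reconstituted holoenzyme (P RNA:P protein 1:1.1) at 33 nM with 270 nM minihelix labelled Alexa Fluor 488/BHQ quencher, in buffer H (pH 7.4, 400 mM AmOAc, 100 mM MgCl2), 10% DMSO, 37°C. Cleavage followed as fluorescence increase (ex 485, em 535 nm); initial velocities from linear slopes.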

The target in data set [3] is T2, RNase P protein (TmP, P protein) (Thermotoga maritima, UniProt Q9X1H4 1-117).
T2 sequence: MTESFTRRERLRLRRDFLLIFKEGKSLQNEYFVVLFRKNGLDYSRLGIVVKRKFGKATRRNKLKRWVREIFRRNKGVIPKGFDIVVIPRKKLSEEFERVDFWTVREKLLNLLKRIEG
The data set is described as follows: BLI; 10 mM Mg2+, 5% DMSO; BLI (Octet RED96): 20 mM HEPES pH 7.4, 100 mM ammonium acetate, 10 mM MgCl2, 2.5-5% DMSO, 30 C; P protein:P RNA in 33 mM Tris, 66.6 mM HEPES, 200 mM ammonium acetate, 10 mM MgCl2, pH 7.4. The settings on record: protein: recombinant; tags: N-terminal His6 (GST fusion cleaved with TEV); single strand.

Consider `CC(=O)Oc1cc(-c2coc3cc(OC(C)=O)c(OC(C)=O)c(OC(C)=O)c3c2=O)cc(OC(C)=O)c1OC(C)=O` [iriginol hexaacetate, reference compound], for which the 50% inhibitory concentration (IC50) in data set [1] is 800 nM; in data set [2], 29500 nM. Regarding GGAAAAAGAU (ssRNA) [5' RNA leader (10 nt)], in data set [3], the Kd was 35.6 nM.

As a reminder, the IC50 is the concentration that gives 50% inhibition. The term Kd denotes a measure of binding affinity in units of concentration.
